Results from patent US4416885A, “Use of isopropylaminopyrimidine in the chemotherapy of muscular dystrophy, myopathy and myotonia” (priority 1982, dated 1983).

Columns and labels:
[1] = tested on: dystrophic New Hampshire chickens, line 413; experiment: Wing apposition (WA) measurements; assay type: in vivo, chicken
Description: The compound IAPP was tested on dystrophic New Hampshire chickens, line 413, and Imperial College (London, England) sub-line of the original Davis, University of California strain. The chickens are homozygous for muscular dystrophy, the disease appearing with 100% incidence.
This can be defined as the minimum separation in cm to which the two wing tips can be passively raised, providing a measure of the characteristic loss is flexibility of the wing muscle-tendon system. The test is performed once weekly. In dystrophic birds, WA changes after the first three weeks of life from 0 cm (wings raised and touching) to about 18 cm at 3 months (wings stiff and can barely be raised). The normal controls maintain a score of 0 cm throughout. […]
Finally, oral therapy with IAPP was undertaken at gradually increasing dosages up to 1 g/Kg/day. The parameters (physical, biochemical and histological) measured previously were again used to test the efficacy of the drug; five different dosages were used orally, each being given for 30-60 days, daily (Tables VII-XI). A total of 75 animals were treated in the current study with IAPP and 70 control animals were used.

[2] = tested on: dystrophic New Hampshire chickens, line 413; experiment: Toxicity (weight change, other symptoms) in dystrophic chickens; assay type: in vivo, chicken
Description: Weight measurements are taken weekly, weight loss, diarrhea or any other symptoms are noted. No drugs have yet been described for dystrophy with a beneficial effect without an accompanying weight loss.
The drug was administered daily in water, injected intra-peritoneally, the amount being adjusted on a weekly basis according to the animal's weight.

[3] = tested on: normal chickens 412; experiment: Experiment 4, weight of normal chickens injected with IAPP; assay type: in vivo, chicken; settings: 50 mg/Kg
Description: (§1) All chickens were injected with 50 mg/Kg IAPP and weighed approximately every second or third day.
A: Control-injected with PBS
(§2) B, C, D: Experimental-injected with 50 mg/Kg IAPP

[4] = tested on: normal chickens 412; experiment: Experiment 4, flip test (25 flips), normal chickens; assay type: in vivo, chicken
Description: as §1, §2

[5] = tested on: dystrophic 413 muscle explants; experiment: Microtubule complexes in muscle explants of injected dystrophic chickens; assay type: in vivo, chicken
Excerpt: Essentially, these experiments were divided into three subgroups, taken from the previous Table:
413A, 413B, 412A, 412B: All were sacrificed after 4 injections and muscle explants placed in culture.
413C, 412C: All were sacrificed after 8 injections and muscle explants were placed in culture.
413D, 412D: All were sacrificed after 10 injections and muscle explants placed in culture.
All explants were placed in CMRL culture medium containing 5% horse serum, 15% fetal bovine serum and 1% antibiotics and allowed to grow for 5-7 days before being fixed and observed for the presence or absence of microtubules. No IAPP was added to the culture medium during the 5-7 days in culture.

[6] = tested on: Dystrophic monocytes; experiment: Effect on human monocytes in culture (flat cells), dystrophic; assay type: cell-based; settings: dystrophic monocytes + IAPP, six individuals, cultured 5-7 days; without IAPP 36.2%; preliminary
[7] = tested on: plasma PK (pyruvate kinase); experiment: Plasma PK; assay type: in vivo, chicken; settings: 300 mg/Kg i.p. three times weekly for 30 days, day 28 ex ovo

CC(C)Nc1ncccn1.O=P(O)(O)O [IAPP, 2-isopropylaminopyrimidine orthophosphate]
WA, treated ([1]; 200 mg/Kg i.p. daily for 30 days, day 28 ex ovo, control 0.4): 1.0 cm | WA, treated ([1]; 200 mg/Kg i.p. daily for 30 days, day 45 ex ovo, control 0.6): 1.5 cm | WA, treated ([1]; 200 mg/Kg i.p. daily for 30 days, day 84 ex ovo, control 8.3): 8.6 cm | WA, treated ([1]; 300 mg/Kg i.p. daily for 30 days, day 28 ex ovo, control 0.4): 0.3 cm | WA, treated ([1]; 300 mg/Kg i.p. daily for 30 days, day 45 ex ovo, control 0.6): 1.6 cm | WA, treated ([1]; 300 mg/Kg i.p. daily for 30 days, day 84 ex ovo, control 9.3): 14.4 cm | WA, treated ([1]; 300 mg/Kg i.p. three times weekly for 30 days, day 28 ex ovo, control 0.4): 0.3 cm | WA, treated ([1]; 300 mg/Kg i.p. three times weekly for 30 days, day 45 ex ovo, control 0.6): 2.0 cm | WA, treated ([1]; 300 mg/Kg i.p. three times weekly for 30 days, day 84 ex ovo, control 8.3): 11.1 cm | WA, treated ([1]; Exp. 2, 40 mg/Kg i.p. daily, day 7-13, control 0): 0 cm | WA, treated ([1]; Exp. 2, 40 mg/Kg i.p. daily, day 14-20, control 0): 0 cm | WA, treated ([1]; Exp. 2, 40 mg/Kg i.p. daily, day 21-27, control 0): 0 cm | WA, treated ([1]; Exp. 2, 40 mg/Kg i.p. daily, day 28-34, control 0): 0 cm | WA, treated ([1]; Exp. 2, 40 mg/Kg i.p. daily, day 35-41, control 2.1): 0 cm | WA, treated ([1]; Exp. 2, 40 mg/Kg i.p. daily, day 42-48, control 4.7): 2.3 cm | WA, treated ([1]; Exp. 2, 40 mg/Kg i.p. daily, day 56-62, control 5.7): 2.9 cm | WA, treated ([1]; Exp. 2, 40 mg/Kg i.p. daily, day 63-71, control 7.5): 6.1 cm | WA, treated ([1]; Exp. 3, 70 mg/Kg i.p. daily, day 14-20, control 0): 0 cm | WA, treated ([1]; Exp. 3, 70 mg/Kg i.p. daily, day 21-27, control 0): 0 cm | WA, treated ([1]; Exp. 3, 70 mg/Kg i.p. daily, day 28-34, control 0): 0 cm | WA, treated ([1]; Table VII, oral 200 mg/Kg, 60 days, day 28 ex ovo, control 0.8): 0.8 cm | WA, treated ([1]; Table VII, oral 200 mg/Kg, 60 days, day 35 ex ovo, control 1.2): 2.5 cm | WA, treated ([1]; Table VII, oral 200 mg/Kg, 60 days, day 45 ex ovo, control 3.4): 4.3 cm | WA, treated ([1]; Table VII, oral 200 mg/Kg, 60 days, day 60 ex ovo, control 9.6): 10.7 cm | WA, treated ([1]; oral 300 mg/Kg daily, day 28 ex ovo, control 1.6): 1.4 cm | WA, treated ([1]; oral 300 mg/Kg daily, day 35 ex ovo, control 1.3): 4.5 cm | WA, treated ([1]; oral 450 mg/Kg daily for 45 days, day 28 ex ovo, control 0.2): 0.7 cm | WA, treated ([1]; oral 450 mg/Kg daily for 45 days, day 35 ex ovo, control 2.8): 1.9 cm | WA, treated ([1]; oral 450 mg/Kg daily for 45 days, day 45 ex ovo, control 5.5): 5.8 cm | WA, treated ([1]; oral 450 mg/Kg daily for 45 days, day 50 ex ovo, control 6.2): 7.6 cm | WA, treated ([1]; oral 600 mg/Kg daily, day 28 ex ovo, control 0.2): 0.3 cm | WA, treated ([1]; oral 600 mg/Kg daily, day 35 ex ovo, control 2.8): 1.1 cm | WA, treated ([1]; oral 600 mg/Kg daily, day 45 ex ovo, control 5.5): 3.5 cm | WA, treated ([1]; oral 600 mg/Kg daily, day 50 ex ovo, control 6.2): 5.5 cm | Weight loss (after 30 days' treatment) ([2]; 200 mg/Kg i.p. daily, level at which it became significant): twenty | % Weight Change vs untreated dystrophic controls ([2]; Exp. 2, 40 mg/Kg i.p. daily, day 7-13): -0.04% | % Weight Change vs untreated dystrophic controls ([2]; Exp. 2, 40 mg/Kg i.p. daily, day 14-20): -0.07% | % Weight Change vs untreated dystrophic controls ([2]; Exp. 2, 40 mg/Kg i.p. daily, day 21-27): -0.07% | % Weight Change vs untreated dystrophic controls ([2]; Exp. 2, 40 mg/Kg i.p. daily, day 28-34): -0.15% | % Weight Change vs untreated dystrophic controls ([2]; Exp. 2, 40 mg/Kg i.p. daily, day 35-41): -0.08% | % Weight Change vs untreated dystrophic controls ([2]; Exp. 2, 40 mg/Kg i.p. daily, day 42-48): -0.04% | % Weight Change vs untreated dystrophic controls ([2]; Exp. 2, 40 mg/Kg i.p. daily, day 49-55): -0.04% | % Weight Change vs untreated dystrophic controls ([2]; Exp. 2, 40 mg/Kg i.p. daily, day 56-62): -0.05% | % Weight Change vs untreated dystrophic controls ([2]; Exp. 2, 40 mg/Kg i.p. daily, day 63-71): -0.01% | Toxicity as evidenced by weight loss ([2]; Exp. 3, 70 mg/Kg): detectable toxicity as evidenced by weight loss, but this is still moderate | % Weight Change vs untreated dystrophic controls ([2]; Exp. 3, 70 mg/Kg i.p. daily, day 7-13): 0% | % Weight Change vs untreated dystrophic controls ([2]; Exp. 3, 70 mg/Kg i.p. daily, day 14-20): -2% | % Weight Change vs untreated dystrophic controls ([2]; Exp. 3, 70 mg/Kg i.p. daily, day 21-27): -3% | % Weight Change vs untreated dystrophic controls ([2]; Exp. 3, 70 mg/Kg i.p. daily, day 28-34): -9% | Maximum Weight Loss ([2]; Table VII, oral 200 mg/Kg, 60 days): 3% | Weight loss / toxic symptoms ([2]; initial single injection 100 mg/Kg, over 7 days): no weight loss over 7 days, nor any other toxic symptoms | Weight ([3]; Exp. 4, 412B, day 1): 51.3 GRAMS | Weight ([3]; Exp. 4, 412B, day 4): 55.8 GRAMS | Weight ([3]; Exp. 4, 412B, day 7): 67.6 GRAMS | Weight ([3]; Exp. 4, 412B, day 9): 68.1 GRAMS | Weight ([3]; Exp. 4, 412C, day 1): 50.8 GRAMS | Weight ([3]; Exp. 4, 412C, day 4): 59.9 GRAMS | Weight ([3]; Exp. 4, 412C, day 7): 67.8 GRAMS | Weight ([3]; Exp. 4, 412C, day 9): 67.7 GRAMS | Weight ([3]; Exp. 4, 412C, day 11): 76.4 GRAMS | Weight ([3]; Exp. 4, 412C, day 14): 111.8 GRAMS | Weight ([3]; Exp. 4, 412C, day 16): 139.0 GRAMS | Weight ([3]; Exp. 4, 412C, day 17): 150.2 GRAMS | Weight ([3]; Exp. 4, 412D, day 1): 52.6 GRAMS | Weight ([3]; Exp. 4, 412D, day 4): 60.5 GRAMS | Weight ([3]; Exp. 4, 412D, day 7): 67.7 GRAMS | Weight ([3]; Exp. 4, 412D, day 9): 67.7 GRAMS | Weight ([3]; Exp. 4, 412D, day 11): 76.6 GRAMS | Weight ([3]; Exp. 4, 412D, day 14): 112.8 GRAMS | Weight ([3]; Exp. 4, 412D, day 16): 139.6 GRAMS | Weight ([3]; Exp. 4, 412D, day 20): 191.5 GRAMS | Weight ([3]; Exp. 4, 412D, day 22): 246.4 GRAMS | Weight ([3]; Exp. 4, 412D, day 25): 273.4 GRAMS | Fatigue in flip test ([4]; 412D, day 25, 50 mg/Kg): did not fatigue | Flip test outcome ([4]; normal drug injected chickens, 50 mg/Kg): able to pass the flip test | % Full Complexes Microtubules ([5]; 413B, Subgroup A, after 4 injections of 50 mg/Kg, 413A control 31%): 58% | % Full Complexes Microtubules ([5]; 413C, Subgroup B, after 8 injections of 50 mg/Kg): 60% | % Full Complexes Microtubules ([5]; 413D, Subgroup C, after 10 injections of 50 mg/Kg): 74% | % Flat Cells [6]: 45.1% | PK [7]: 499
